The source of these data is patent US12384798B2, “ACC inhibitor and use thereof” (NANJING RUIJIE PHARMA CO., LTD., priority 2019, dated 2025).

As usually defined, the Cmax is the peak of the concentration-time curve. The Tmax is the time from dosing to the highest level. In general, bioavailability refers to dose-corrected exposure relative to a reference, in per cent. One may read the IC50 as the point on the concentration scale where inhibition reaches its midpoint.

Molecules are shown by their SMILES. Like-named read-outs stand apart in the source and are kept apart here.

Series [1] can be described thus: Pharmacokinetic evaluation of compounds in rats. The settings on record: SD rats; for Kp / Vd / AUC(0-inf) / Cmax / Tmax / half-life / bioavailability: male, rat; for Kp: liver/plasma, liver collected 1 h, 3 h and 24 h after dosage, read-out: L/P liver-to-blood ratio; for Vd / AUC(0-inf) / Cmax / Tmax / half-life / bioavailability: plasma; for Vd: intravenous, 2 mg/kg, read-out: Vss; for bioavailability: read-out: F (%) bioavailability. Format: in vivo. The source says:
This example was intended to investigate the pharmacokinetics of the compounds of the present invention and ND630 in SD rats under the conditions of intravenous (iv) and intragastric administration (po). Unless otherwise stated, the experimental reagents and instruments are all commercially available. ND630 was Gilead's acetyl CoA carboxylase (ACC) inhibitor, with a structural formula as follows: […]
Formulation of compound: by taking a physiological saline solution of 5% DMSO+5% Solutol HS 15+90% HP-β-CD (20% w/v) as a solvent, a compound with the final concentration of 0.4 mg/mL was formulated for intravenous administration and a compound with the final concentration of 1 mg/mL was formulated for orally intragastric administration.
Animal feeding and management: male SD rats aged 6-8 weeks and weighing between 180-250 g were selected and raised in transparent resin plastic rate cages. Before administration, the rats were fasted overnight for at least 16 hours, and the feed supply was restored 4 hours after administration.
For the intravenous injection administration group, the dose was 2 mg/kg, and 0.2 mL of blood samples was collected from the jugular vein 5 min, 15 min, 30 min, 1 h, 3 h, 5 h, and 8 h after dosage. For the orally intragastric administration group, the dose was 10 mg/kg, and 0.2 mL of blood samples was collected from the jugular vein 15 min, 30 min, 1 h, 3 h, 5 h, 8 h, 12 h, and 24 h after dosage; and liver tissues were collected 1 h, 3 hand 24 h after dosage.
After the blood were sampled, the plasma was quickly separated by centrifugation at 4000 rpm (10 minutes, 4° C.). After the liver tissues were sampled, a mixture of methanol:water (1:1, v/v) three times the volume of the liver tissues was added to prepare a homogenate. 50 μL of plasma or homogenate sample was drawn, and 200 μL of an internal standard (30 ng/mL terfenadine, and acetonitrile) was added for precipitation. Centrifuging was carried out at 4° C. and 15,400 g for 10 minutes, and a supernatant was taken for analysis.
The concentration of a target compound was detected by LC-MS/MS. According to the plasma concentration-time curve, pharmacokinetic parameters were calculated by using a non-compartmental model (NCA) of software WinNonlin 7.0. […] Table 4. Pharmacokinetic results

The target of series [2] is ACC1 (Homo sapiens (Human), UniProt Q13085). Description: In vitro ACC inhibition assay (ADP-Glo), ACC1. Format: biochemical. The settings on record: for IC50: 0.5 nM ACC, 10 μM ATP, 5 μM acetyl-CoA, read-out: Enzymatic activity IC50 ACC1. The method, then: (§1) An exemplary procedure for the in vitro ACC inhibition assay, which can be used to determine the inhibitory action of the compounds of the invention toward either ACC1 or ACC2, is as follows. The ADP-Glo™ kinase assay kit from Promega was used. The ADP-Glo™ kinase assay is a luminescent ADP detection assay to measure enzymatic activity by quantifying the amount of ADP produced during an enzyme reaction. The assay was performed in two steps; first, after the enzyme reaction, an equal volume of ADP-Glo™ reagent was added to terminate the reaction and deplete the remaining ATP. Then, the kinase detection reagent was added to simultaneously convert ADP to ATP and allow the newly synthesized ATP to be measured using a luciferase/luciferin reaction. Luminescence can be correlated to ADP concentrations by using an ATP-to-ADP conversion curve. The detailed procedure was as follows. 4.5 μL of a working solution was added to a 384-well plate. The compound was diluted at 1:3 in succession in DMSO. 0.5 μL of diluted compound solution was added to a 384-well white Optiplate assay plate. The plates were incubated at room temperature for 15 minutes. 5 μL of substrate working solution was added to each well to initiate the reaction. A final ACC reaction solution consisted of: 0.5 nM ACC, 10 μM ATP, 5 μM acetyl-CoA, and 15 mM NaHCO3; and the final concentrations of the compound were measured as follows: 1 μM, 0.333 μM, 0.111 μM, 0.037 μM, 0.0123 μM, 0.00411 μM, 0.00137 μM, 0.000457 μM, 0.000152 μM, and 0.000051 μM. The plates were incubated at room temperature for 30 minutes. 10 μL of ADP-Glo™ reagent was added, and the plates were incubated at room temperature for 40 minutes. 20 μL of kinase detection reagent was added. The plates were incubated at room temperature for 40 minutes, then read on a Perkin Elmer EnVision 2104 plate reader for luminescence in relative light unit (RLU).
(§2) Data for each concentration, as well as the positive and negative controls were averaged, and the standard deviation was calculated. Percent inhibition was calculated by the formula: 100×(average negative control−compound)/(average negative control−average positive control). The IC50 for each compound was calculated by fitting the data with a non-linear regression equation: Y=Bottom+(Top−Bottom)/(1+10^((Log IC50−X)×HillSlope)), where X is the log of compound concentration and Y is the percent inhibition.
A general note: In ADP-Glo the light output rises with the ADP produced.

The target of series [3] is ACC2 (Homo sapiens (Human), UniProt O00763). As to the kind of experiment: In vitro ACC inhibition assay (ADP-Glo), ACC2. In kind it is biochemical. The settings on record: for IC50: 0.5 nM ACC, 10 μM ATP, 5 μM acetyl-CoA, read-out: Enzymatic activity IC50 ACC2. The protocol: as §1, §2
Sequence of ACC2 (O00763 whole entry, species assumed): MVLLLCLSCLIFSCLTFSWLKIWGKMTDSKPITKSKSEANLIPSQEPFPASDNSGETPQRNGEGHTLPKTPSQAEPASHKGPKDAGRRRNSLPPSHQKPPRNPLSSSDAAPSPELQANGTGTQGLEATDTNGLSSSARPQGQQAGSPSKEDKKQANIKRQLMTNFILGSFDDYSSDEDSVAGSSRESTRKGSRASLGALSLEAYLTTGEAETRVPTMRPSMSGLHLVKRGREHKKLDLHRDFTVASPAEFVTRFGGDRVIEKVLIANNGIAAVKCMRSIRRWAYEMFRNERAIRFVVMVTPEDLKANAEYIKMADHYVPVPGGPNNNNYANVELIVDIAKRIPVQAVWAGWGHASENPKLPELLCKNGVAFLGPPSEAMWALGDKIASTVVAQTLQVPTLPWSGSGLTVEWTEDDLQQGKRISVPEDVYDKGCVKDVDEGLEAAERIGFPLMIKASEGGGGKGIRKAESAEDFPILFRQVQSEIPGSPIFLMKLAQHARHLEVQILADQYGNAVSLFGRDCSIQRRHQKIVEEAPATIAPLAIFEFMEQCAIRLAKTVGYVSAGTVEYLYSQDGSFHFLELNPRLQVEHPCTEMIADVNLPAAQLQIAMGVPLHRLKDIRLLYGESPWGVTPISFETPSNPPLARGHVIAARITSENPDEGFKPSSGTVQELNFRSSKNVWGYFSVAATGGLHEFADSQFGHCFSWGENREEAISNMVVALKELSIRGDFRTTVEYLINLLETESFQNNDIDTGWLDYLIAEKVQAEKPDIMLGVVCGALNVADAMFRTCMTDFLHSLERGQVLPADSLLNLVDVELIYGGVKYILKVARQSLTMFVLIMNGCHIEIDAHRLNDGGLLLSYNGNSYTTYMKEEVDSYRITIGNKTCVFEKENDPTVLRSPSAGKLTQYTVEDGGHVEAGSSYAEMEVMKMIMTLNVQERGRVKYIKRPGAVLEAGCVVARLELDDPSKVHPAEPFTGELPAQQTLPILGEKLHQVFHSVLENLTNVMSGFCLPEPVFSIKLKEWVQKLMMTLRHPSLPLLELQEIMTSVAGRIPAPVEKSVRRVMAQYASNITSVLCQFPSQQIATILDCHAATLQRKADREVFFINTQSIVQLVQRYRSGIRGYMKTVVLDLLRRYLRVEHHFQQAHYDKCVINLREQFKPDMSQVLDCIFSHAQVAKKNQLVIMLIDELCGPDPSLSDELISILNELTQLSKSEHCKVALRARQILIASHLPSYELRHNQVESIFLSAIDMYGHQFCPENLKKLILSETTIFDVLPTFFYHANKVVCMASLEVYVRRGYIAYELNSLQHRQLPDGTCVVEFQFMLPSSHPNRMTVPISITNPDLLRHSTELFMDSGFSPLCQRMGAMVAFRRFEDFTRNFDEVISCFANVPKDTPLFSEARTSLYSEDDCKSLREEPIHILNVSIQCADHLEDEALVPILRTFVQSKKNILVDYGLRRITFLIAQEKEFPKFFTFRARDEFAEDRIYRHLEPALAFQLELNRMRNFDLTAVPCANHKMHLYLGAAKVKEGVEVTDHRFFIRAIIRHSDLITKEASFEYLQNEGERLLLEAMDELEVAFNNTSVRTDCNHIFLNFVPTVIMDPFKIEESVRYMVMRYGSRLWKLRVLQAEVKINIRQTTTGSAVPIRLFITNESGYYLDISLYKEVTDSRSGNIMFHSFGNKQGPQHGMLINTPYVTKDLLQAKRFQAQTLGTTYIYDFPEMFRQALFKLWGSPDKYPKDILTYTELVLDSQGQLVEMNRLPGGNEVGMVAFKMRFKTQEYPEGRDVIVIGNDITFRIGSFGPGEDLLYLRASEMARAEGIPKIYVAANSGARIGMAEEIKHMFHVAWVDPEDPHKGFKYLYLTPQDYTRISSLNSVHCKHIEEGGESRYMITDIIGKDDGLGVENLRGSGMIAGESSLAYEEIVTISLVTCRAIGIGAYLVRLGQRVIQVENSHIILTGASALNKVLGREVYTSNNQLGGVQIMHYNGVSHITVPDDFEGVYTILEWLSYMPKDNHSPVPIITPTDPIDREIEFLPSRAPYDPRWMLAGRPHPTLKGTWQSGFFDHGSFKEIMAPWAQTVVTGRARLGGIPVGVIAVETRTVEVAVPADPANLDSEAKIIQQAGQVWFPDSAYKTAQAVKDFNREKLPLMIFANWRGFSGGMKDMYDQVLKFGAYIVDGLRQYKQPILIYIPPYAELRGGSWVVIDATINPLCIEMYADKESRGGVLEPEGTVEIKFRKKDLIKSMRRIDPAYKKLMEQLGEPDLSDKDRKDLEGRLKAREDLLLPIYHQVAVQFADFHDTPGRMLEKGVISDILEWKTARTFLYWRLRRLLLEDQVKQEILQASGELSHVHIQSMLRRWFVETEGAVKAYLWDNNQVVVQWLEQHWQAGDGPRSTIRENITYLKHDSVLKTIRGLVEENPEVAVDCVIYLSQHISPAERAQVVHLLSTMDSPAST
Where [4] appears, read: iv 2 mg/kg, read-out: AUC0-∞ (iv).
Setting [5] is: iv 2 mg/kg, read-out: Cmax (iv).
[6] abbreviates: iv 2 mg/kg, read-out: Tmax (iv).
[7] abbreviates: iv 2 mg/kg, read-out: t1/2 (iv) (converted).
The mark [8] stands for this setting: po 10 mg/kg, read-out: AUC0-∞ (po).
Setting [9] is: po 10 mg/kg, read-out: Cmax (po).
Setting [10] is: po 10 mg/kg, read-out: Tmax (po).
The mark [11] stands for this setting: po 10 mg/kg, read-out: t1/2 (po) (converted).

For `COc1ccccc1[C@H](Cn1c(=O)n([C@H]2C[C@H](CC(=O)O)C2)c(=O)c2c(C)c(-c3ncco3)sc21)OC1CCOCC1` [c-3-1, 2-((1R,3r)-3-(1-((R)-2-(2-methoxyphenyl)-2-((tetrahydro-2H-pyran-4-yl)oxy)ethyl)-5-methyl-6-(oxazol-2-yl)-2,4-dioxo-1,2-dihydrothieno[2,3-d]pyrimidine-3(4H)-yl)cyclobutyl)acetic acid], in series [1], the Cl turned out to be 10.7 mL/min/kg. The Kp in series [1] (po 10 mg/kg) was in the range of 9.46 to 17.3. The Vd in series [1] was 0.826 L/kg. Also, the AUC(0-inf) in series [1] (setting [4]) came to 3120 ng·h/mL; in series [1] (setting [8]), 15700 ng·h/mL. Besides, the Cmax in series [1] (setting [5]) is 4100 ng/mL; in series [1] (setting [9]), 7780 ng/mL. The Tmax is 5 min in series [1] (setting [6]) and 30 min in series [1] (setting [10]). The results for the half-life in series [1] (setting [7]) and in series [1] (setting [11]) were 104 min and 279 min, respectively. Moreover, the bioavailability in series [1] (po 10 mg/kg, iv 2 mg/kg) came out at 99.6%. The “inhibitory properties against ACC1 (in words)” value in series [2] is “good inhibitory properties”. For the same compound, the IC50 in series [2] was 0.836 nM; in series [3], 9 nM. Moreover, the “inhibitory properties against ACC2 (in words)” value in series [3] is “good inhibitory properties”.
Compound `COc1ccccc1[C@H](Cn1c(=O)n([C@H]2C[C@@H](CC(=O)O)C2)c(=O)c2c(C)c(-c3ncco3)sc21)OC1CCOCC1` [c-3-2, 2-((1S,3s)-3-(1-((R)-2-(2-methoxyphenyl)-2-((tetrahydro-2H-pyran-4-yl)oxy)ethyl)-5-methyl-6-(oxazol-2-yl)-2,4-dioxo-1,2-dihydrothieno[2,3-d]pyrimidine-3(4H)-yl)cyclobutyl)acetic acid] registered a Cl in series [1] of 25.1 mL/min/kg. In addition, in series [1] (po 10 mg/kg), the Kp was in the range of 20.6 to 30. For the same compound, the Vd in series [1] amounted to 0.839 L/kg. For the same compound, the AUC(0-inf) in series [1] (setting [4]) is 1390 ng·h/mL; in series [1] (setting [8]), 4350 ng·h/mL. Also, the Cmax in series [1] (setting [5]) came to 3110 ng/mL; in series [1] (setting [9]), 3240 ng/mL. For the same compound, the Tmax in series [1] (setting [6]) came out at 5 min; in series [1] (setting [10]), 24 min. For the same compound, the half-life in series [1] (setting [7]) is 54 min; in series [1] (setting [11]) it was 289 min. In addition, in series [1] (po 10 mg/kg, iv 2 mg/kg), the bioavailability amounted to 62.3%. Moreover, the “inhibitory properties against ACC1 (in words)” value in series [2] is “good inhibitory properties”. In addition, the IC50 came to 1.12 nM in series [2] and 8 nM in series [3]. Besides, the “inhibitory properties against ACC2 (in words)” value in series [3] is on record as “good inhibitory properties”.
